This experiment addresses T1, MerTK (Homo sapiens, UniProt Q12866).
T1 construct: endogenous in cells; host or cells: Jurkat cells
T1 sequence (Q12866 21-999): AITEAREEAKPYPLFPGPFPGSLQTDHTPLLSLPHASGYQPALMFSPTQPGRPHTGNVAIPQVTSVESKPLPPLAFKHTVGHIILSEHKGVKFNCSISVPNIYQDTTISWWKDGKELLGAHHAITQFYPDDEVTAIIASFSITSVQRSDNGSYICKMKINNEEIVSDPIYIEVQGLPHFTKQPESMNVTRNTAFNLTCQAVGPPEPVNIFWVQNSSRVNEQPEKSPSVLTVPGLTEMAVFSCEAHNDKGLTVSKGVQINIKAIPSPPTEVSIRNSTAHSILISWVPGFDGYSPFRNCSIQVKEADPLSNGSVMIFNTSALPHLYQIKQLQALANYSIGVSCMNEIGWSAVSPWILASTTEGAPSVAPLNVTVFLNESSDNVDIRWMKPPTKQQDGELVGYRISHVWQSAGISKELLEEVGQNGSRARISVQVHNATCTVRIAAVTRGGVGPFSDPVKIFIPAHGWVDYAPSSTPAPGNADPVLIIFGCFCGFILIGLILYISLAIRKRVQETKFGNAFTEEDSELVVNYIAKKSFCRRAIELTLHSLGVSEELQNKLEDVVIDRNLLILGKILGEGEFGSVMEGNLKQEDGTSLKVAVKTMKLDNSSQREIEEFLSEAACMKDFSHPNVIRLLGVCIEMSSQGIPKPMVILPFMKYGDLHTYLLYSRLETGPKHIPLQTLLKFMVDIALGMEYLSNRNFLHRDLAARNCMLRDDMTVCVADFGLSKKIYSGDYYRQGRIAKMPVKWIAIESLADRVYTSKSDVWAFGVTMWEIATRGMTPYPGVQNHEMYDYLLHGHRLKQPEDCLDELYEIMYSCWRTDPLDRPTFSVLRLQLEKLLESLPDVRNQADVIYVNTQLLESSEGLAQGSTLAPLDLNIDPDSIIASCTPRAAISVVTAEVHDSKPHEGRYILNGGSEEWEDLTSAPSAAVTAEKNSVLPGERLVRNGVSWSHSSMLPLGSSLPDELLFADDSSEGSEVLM
In words: MerTk degradation in Jurkat cells (Western blot). The following applies: Jurkat, 4 h, 0.001-1 μM, 4 hour-incubation at 37° C., read-out: Jurkat Max % MerTK Degradation. The experiment is classed as cell-based. Put shortly: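 MerTK degradation was read by near-infrared Western blot, normalized to actin, in BCA-quantified lysates of Jurkat cells exposed to 0.001-1 μM compound for 4 h at 37 °C.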
For the compound `C[C@@H](CC(F)(F)F)Nc1ncc2c(-c3ccc(CN4CCN(CCCOCCCc5ccc6c(c5)n(C)c(=O)n6C5CCC(=O)NC5=O)CC4)cc3)cn([C@H]3CC[C@H](O)CC3)c2n1` (stereo partly drawn) [I-110, 3-[3-methyl-2-oxo-5-[3-(3-[4-[(4-[7-[(1r,4r)-4-hydroxycyclohexyl]-2-[[(2S)-4,4,4-trifluorobutan-2-yl]amino]-7H-pyrrolo[2,3-d]pyrimidin-5-yl]phenyl)methyl]piperazin-1-yl]propoxy)propyl]-2,3-dihydro-1H-1,3-benzodiazol-1-y1]piperidine-2,6-dione], the Dmax is greater than 50%. The same measure for `C[C@H](CC(F)(F)F)Nc1ncc2c(-c3ccc(CN4CCN(CCCOCCCc5ccc6c(c5)n(C)c(=O)n6C5CCC(=O)NC5=O)CC4)cc3)cn([C@H]3CC[C@H](O)CC3)c2n1` (some centres unmarked) [I-111]: greater than 50%. The same measure for `Cn1c(=O)n([C@H]2CCC(=O)NC2=O)c2ccc(CCCN3CC(CCN4CCN(Cc5ccc(-c6cn([C@H]7CC[C@H](O)CC7)c7nc(NCCC(F)(F)F)ncc67)cc5)CC4)C3)cc21` [I-112, 3-(3-methyl-2-oxo-5-[3-[3-(2-[4-[(4-[7-[trans-4-hydroxycyclohexy1]-2-[(3,3,3-trifluoropropyl)amino]-7H-pyrrolo[2,3-d]pyrimidin-5-yl]phenyl)methyl]piperazin-1-yl]ethyl)azetidin-1-yl]propyl]-2,3-dihydro-1H-1,3-benzodiazol-1-y1)piperidine-2,6-dione]: less than 20%. As to `Cn1c(=O)n([C@H]2CCC(=O)NC2=O)c2ccc(Cn3cc(CN4CCN(Cc5ccc(-c6cn([C@H]7CC[C@H](O)CC7)c7nc(NCCC(F)(F)F)ncc67)cc5)CC4)nn3)cc21` [I-113, 3-(3-Methyl-2-oxo-5-[[4-([4-[(4-[7-[trans-4-hydroxycyclohexyl]-2-[(3,3,3-trifluoropropyl)amino]-7H-pyrrolo[2,3-d]pyrimidin-5-yl]phenyl)methyl]piperazin-1-yl]methyl)-1H-1,2,3-triazol-1-yl]methyl]-2,3-dihydro-1H-1,3-benzodiazol-1-yl)piperidine-2,6-dione], the Dmax is greater than 50%. On to `Cn1c(=O)n([C@H]2CCC(=O)NC2=O)c2ccc(CCn3cc(CN4CCN(Cc5ccc(-c6cn([C@H]7CC[C@H](O)CC7)c7nc(NCCC(F)(F)F)ncc67)cc5)CC4)nn3)cc21` [I-114, 3-(3-methyl-2-oxo-5-[12-[4-([4-1(4-[17-[trans-4-hydroxycyclohexyl]-2-[(3,3,3-trifluoropropyl)aminol-7H-pyrrolo[2,3-d]pyrimidin-5-yl]phenyl)methyl]piperazin-1-yl]methyl)-1H-1,2,3-triazol-1-yl]ethyl]-2,3-dihydro-1H-1,3-benzodiazol-1-yl)piperidine-2,6-dione], for which the Dmax is greater than 50%. The result for `Cn1c(=O)n([C@H]2CCC(=O)NC2=O)c2ccc(CCCOCCCN3CCN(Cc4ccc(-c5cn([C@H]6CC[C@H](O)CC6)c6nc(NCCC(F)F)ncc56)cc4)CC3)cc21` [I-115, 3-[5-[3-(3-[4-[(4-[2-[(3,3-difluoropropyl)amino]-7-[(1r,4r)-4-hydroxycyclohexy1]-7H-pyrrolo[2,3-d]pyrimidin-5-yl]phenyl)methyl]piperazin-1-yl]propoxy)propyl]-3-methyl-2-oxo-2,3-dihydro-1H-1,3-benzodiazol-1-yl]piperidine-2,6-dione; formic acid] reads greater than 50%. The result for `Cn1c(=O)n([C@H]2CCC(=O)NC2=O)c2ccc(CCCN3CC(N4CCN(Cc5ccc(-c6cn([C@H]7CC[C@H](O)CC7)c7nc(NCCC(F)(F)F)ncc67)cc5)CC4)C3)cc21` [I-116, 3-[3-methyl-2-oxo-5-[3-(3-[4-[(4-[7-[trans-4-hydroxycyclohexyl]-2-[(3,3,3-trifluoropropyl)amino]-7H-pyrrolo[2,3-d]pyrimidin-5-yl]phenyl)methyl]piperazin-1-yl]azetidin-1-y1)propyl]-2,3-dihydro-1H-1,3-benzodiazol-1-yl]piperidine-2,6-dione] reads greater than 50%. Consider `Cn1c(=O)n([C@H]2CCC(=O)NC2=O)c2ccc(CCCN3CCC(N4CCN(Cc5ccc(-c6cn([C@H]7CC[C@H](O)CC7)c7nc(NCCC(F)(F)F)ncc67)cc5)CC4)CC3)cc21` [I-117, 3-[3-methyl-2-oxo-5-[3-(4-[4-[(4-[7-[trans-4-hydroxycyclohexy1]-2-[(3,3,3-trifluoropropyl)amino]-7H-pyrrolo[2,3-d]pyrimidin-5-yl]phenyl)methyl]piperazin-1-yl]piperidin-1-y1)propyl]-2,3-dihydro-1H-1,3-benzodiazol-1-yl]piperidine-2,6-dione], for which the Dmax is greater than 50%. With `Cn1c(=O)n(C2CCC(=O)NC2=O)c2ccc(CCCN3CCCC(N4CCN(Cc5ccc(-c6cn([C@H]7CC[C@H](O)CC7)c7nc(NCCC(F)(F)F)ncc67)cc5)CC4)C3)cc21` (stereo partly drawn) [I-118, 3-[3-methyl-2-oxo-5-[3-(3-[4-[(4-[7-[trans-4-hydroxycyclohexy1]-2-[(3,3,3-trifluoropropyl)amino]-7H-pyrrolo[2,3-d]pyrimidin-5-yl]phenyl)methyl]piperazin-1-y1]piperidin-1-y1)propyl]-2,3-dihydro-1H-1,3-benzodiazol-1-yl]piperidine-2,6-dione; formic acid], the Dmax lay in the range of 20 to 50%.

For the compound `Cn1c(=O)n([C@H]2CCC(=O)NC2=O)c2ccc(CCCCN3CC(N4CCN(Cc5ccc(-c6cn([C@H]7CC[C@H](O)CC7)c7nc(NCCC(F)(F)F)ncc67)cc5)CC4)C3)cc21` [I-119, 3-[3-methyl-2-oxo-5-[4-(3-[4-[(4-[7-[trans-4-hydroxycyclohexyl]-2-[(3,3,3-trifluoropropyl)amino]-7H-pyrrolo[2,3-d]pyrimidin-5-yl]phenyl)methyl]piperazin-1-yl]azetidin-1-yl)butyl]-2,3-dihydro-1H-1,3-benzodiazol-1-yl]piperidine-2,6-dione; bis(formic acid)], the Dmax was greater than 50%. For the compound `Cn1c(=O)n([C@H]2CCC(=O)NC2=O)c2ccc(CCCCN3CCC(N4CCN(Cc5ccc(-c6cn([C@H]7CC[C@H](O)CC7)c7nc(NCCC(F)(F)F)ncc67)cc5)CC4)CC3)cc21` [I-120, 3-[3-methyl-2-oxo-5-[4-(4-[4-[(4-[7-[trans-4-hydroxycyclohexyl]-2-[(3,3,3-trifluoropropyl)amino]-7H-pyrrolo[2,3-d]pyrimidin-5-yl]phenyl)methyl]piperazin-1-yl]piperidin-1-yl)butyl]-2,3-dihydro-1H-1,3-benzodiazol-1-yl]piperidine-2,6-dione], the Dmax was greater than 50%.

For `Cn1c(=O)n(C2CCC(=O)NC2=O)c2ccc(CCCCN3CCCC(N4CCN(Cc5ccc(-c6cn([C@H]7CC[C@H](O)CC7)c7nc(NCCC(F)(F)F)ncc67)cc5)CC4)C3)cc21` (stereo partly drawn) [I-121, 3-[3-methyl-2-oxo-5-[4-(3-[4-[(4-[7-[trans-4-hydroxycyclohexyl]-2-[(3,3,3-trifluoropropyl)amino]-7H-pyrrolo[2,3-d]pyrimidin-5-yl]phenyl)methyl]piperazin-1-yl]piperidin-1-yl)butyl]-2,3-dihydro-1H-1,3-benzodiazol-1-yl]piperidine-2,6-dione], the Dmax was greater than 50%. The same measure for `Cn1c(=O)n(C2CCC(=O)NC2=O)c2ccc(CCCN3CCC(N4CCN(Cc5ccc(-c6cn([C@H]7CC[C@H](O)CC7)c7nc(NCCC(F)(F)F)ncc67)cc5)CC4)C3)cc21` (stereo partly drawn) [I-122, 3-[3-methyl-2-oxo-5-[3-(3-[4-[(4-[7-[trans-4-hydroxycyclohexy1]-2-[(3,3,3-trifluoropropyl)amino]-7H-pyrrolo[2,3-d]pyrimidin-5-yl]phenyl)methyl]piperazin-1-y1]pyrrolidin-1-y1)propyl]-2,3-dihydro-1H-1,3-benzodiazol-1-yl]piperidine-2,6-dione; formic acid]: greater than 50%. The same measure for `Cn1c(=O)n(C2CCC(=O)NC2=O)c2ccc(CCCCN3CCC(N4CCN(Cc5ccc(-c6cn([C@H]7CC[C@H](O)CC7)c7nc(NCCC(F)(F)F)ncc67)cc5)CC4)C3)cc21` (stereo partly drawn) [I-123, 3-[3-methyl-2-oxo-5-[4-(3-[4-[(4-[7-[trans-4-hydroxycyclohexyl]-2-[(3,3,3-trifluoropropyl)amino]-7H-pyrrolo[2,3-d]pyrimidin-5-yl]phenyl)methyl]piperazin-1-yl]pyrrolidin-1-yl)butyl]-2,3-dihydro-1H-1,3-benzodiazol-1-yl]piperidine-2,6-dione; formic acid]: greater than 50%.
